From ChEMBL document CHEMBL3507680, “University of Dundee, Gates Library screen for HepG2 cell viability” come the findings set out here.

A short description of the series: Human HepG2 cell viability assay in 384 well format. The class given is toxicity, cell-based. The arrangement: dose 125 nL, time 70.5 hour; concentration not given beside the values. The following applies: HepG2 cells, read-out: Inhibition.
Turning to `Cn1cnc(S(=O)(=O)N2C[C@H](OCC3CC3)[C@H]3OCCC[C@H]32)c1`, the cytotoxicity at 70.5 h is 16.2%.

Take `Cc1nc(N2CCCC2)ncc1-c1cc(O)nc(N2CCCC2)n1`: the cytotoxicity at 70.5 h was -11.7%.

As for `CCCN(C(=O)c1cnc(C)cn1)c1nc2c(s1)CCc1c-2cnn1C`, the cytotoxicity at 70.5 h was 14.9%.

On to `Cc1noc(C)c1C(=O)N1CCC2(CC(N(C)c3ccncn3)C2)C1` (stereo not drawn), for which the cytotoxicity at 70.5 h was -6.65%.

For the compound `O=C(NCCS(=O)(=O)N1CCN(c2ncccn2)CC1)C1CC1`, the cytotoxicity at 70.5 h is 16.5%.

Regarding `CN(C1CCCC1)C(C)(C)C(=O)NCCS(C)(=O)=O`, the cytotoxicity at 70.5 h came to 2.52%.

Regarding `Cc1ccnc(C2(C)CCCN2S(=O)(=O)c2cccnc2)n1` (stereo not drawn), the cytotoxicity at 70.5 h is -3.08%.

Consider `CS(=O)(=O)N1CCN(C(=O)c2cccc(Cl)c2)CC2(CNC(=O)C2)C1` (stereo not drawn), for which the cytotoxicity at 70.5 h is -0.473%.

For `Cc1nnc(N2CCOC(C)(C(=O)N(C)C)C2)c2ccccc12` (stereo not drawn), the cytotoxicity at 70.5 h is -8.96%.

In the case of `CCn1c(C)cc(C(=O)N2CCCC(n3nc(C)nc3C)C2)c1C` (stereo not drawn), the cytotoxicity at 70.5 h was -7.33%.

For `CCCOc1ccc(OCCN2CCOCS2(=O)=O)cc1`, the cytotoxicity at 70.5 h was -10.3%.

Turning to `CN(CCN1CCOC1=O)CC(=O)Nc1ccc(Cl)c(Cl)c1`, the cytotoxicity at 70.5 h was -20.1%.

As for `Fc1cnc(N2CCO[C@H]3[C@H](OCC4CCOCC4)CC[C@@H]32)nc1`, the cytotoxicity at 70.5 h is -9.91%.

In the case of `Cn1cccc1CNC(=O)N(CCO)C1CCCc2ccccc21` (stereo not drawn), the cytotoxicity at 70.5 h is 7.35%.

Consider `CN1CC[C@H](N(C)Cc2ccccc2)C[C@H](O)C1`, for which the cytotoxicity at 70.5 h is -10.5%.

Regarding `O=C1CO[C@@H]2CN(Cc3nccs3)C[C@H]2N1Cc1ccncc1`, the cytotoxicity at 70.5 h is -11.4%.

As for `CC(C)Oc1ncccc1CNC(=O)NC1CCOc2ccccc21` (stereo not drawn), the cytotoxicity at 70.5 h is 8.32%.

In the case of `CC(C)N1CC2(CCC1=O)CCN(C(=O)c1cccc(F)c1F)CC2`, the cytotoxicity at 70.5 h was -5.47%.

Consider `C[C@@H]1CN(C2CCN(c3ccccc3)CC2)CC[C@@]1(O)C1CCOCC1`, for which the cytotoxicity at 70.5 h is -3.71%.

On to `c1nnc(Nc2cncc(C3CCCN3CC3CC3)n2)s1` (stereo not drawn), for which the cytotoxicity at 70.5 h is 0.394%.

With `COc1cc(C2SCC(=O)Nc3ccsc32)cc(OC)c1O` (stereo not drawn), the cytotoxicity at 70.5 h is -4.76%.

For the compound `Cc1noc(C)c1CN1C[C@@H](NC(=O)N(C)C)[C@H](C(C)C)C1`, the cytotoxicity at 70.5 h was -6.75%.

As to `OC[C@@H]1CCCN1Cc1cn(C2CCN(C3CCCC3)CC2)nn1`, the cytotoxicity at 70.5 h was -4.14%.

As for `Cn1nc(C(=O)NC2CC2)cc1NC(=O)C1CC1`, the cytotoxicity at 70.5 h is -7.34%.

On to `NC(=O)NC1CCN(Cc2ccc(Br)c(F)c2)CC1`, for which the cytotoxicity at 70.5 h was -5.43%.

In the case of `Cc1nnc(CN2CCOC(c3ccc(Cl)cc3)C2)o1` (stereo not drawn), the cytotoxicity at 70.5 h came to 0.631%.

Consider `O=C(NCC1CC1)C1CN(Cc2cccs2)Cc2ccnn2C1` (stereo not drawn), for which the cytotoxicity at 70.5 h is -13.4%.

For the compound `O=C(c1cscn1)N1CCc2ncnc(-c3ccncc3)c2CC1`, the cytotoxicity at 70.5 h is -2.35%.

In the case of `COCCN1CCN(CC2CCCCO2)CC1` (stereo not drawn), the cytotoxicity at 70.5 h turned out to be 38.7%.

Consider `CC(C)CCN1CCNC(=O)C1CC(=O)NCCc1cc(O)ncn1` (stereo not drawn), for which the cytotoxicity at 70.5 h was -11%.

As for `COc1cc(CN2CCn3c(CO)nnc3C2)ccc1OC(C)C`, the cytotoxicity at 70.5 h was determined as 34.7%.

Take `CCn1nc(C)c2c1cnn2CC(=O)Nc1ccc(OC)cc1C`: the cytotoxicity at 70.5 h is -1.46%.

Turning to `Cc1nn(C)c(N2CCOCC2)c1CNC(C)c1cccs1` (stereo not drawn), the cytotoxicity at 70.5 h was -1.47%.

On to `COCC(=O)N1Cc2cnc(Cc3ccc(OC)cc3)nc2C1`, for which the cytotoxicity at 70.5 h worked out at 1.24%.

With `Cc1csc2ncc(-c3ccnc(N4CCCC4)n3)c(=O)n12`, the cytotoxicity at 70.5 h is -2.62%.

Turning to `Cc1nc(N2CCOCC2)nc(C)c1NS(=O)(=O)c1ccccc1`, the cytotoxicity at 70.5 h is -4.03%.

For `O=C1NCC[C@]12CN(Cc1cccnc1)C[C@H]2c1ccccc1`, the cytotoxicity at 70.5 h was -3.58%.

With `CN1CC2(CCN(C(=O)CCCOCc3ccccc3)C2)OC1=O` (stereo not drawn), the cytotoxicity at 70.5 h is -11.2%.

With `Cc1ccc(-c2noc(CN3CCc4nn(C)c(=O)cc4C3)n2)cc1`, the cytotoxicity at 70.5 h was -4.24%.

For the compound `Cc1nc(CN2CCc3ncnc(C4CCOC4)c3CC2)cs1` (stereo not drawn), the cytotoxicity at 70.5 h was found to be 0.032%.

As to `CCC(=O)N1CCC(c2ncc3c(n2)CCNC3)CC1`, the cytotoxicity at 70.5 h is -4.58%.

Take `N#Cc1ccc(NCCCOCC2CCCO2)c(F)c1` (stereo not drawn): the cytotoxicity at 70.5 h is 2%.

Turning to `Cc1ccc2c(n1)N(Cc1cccnc1)CCN(C(=O)C1CCC1)C2`, the cytotoxicity at 70.5 h was -12.9%.

For the compound `COC(=O)c1ccc(CNC(=O)Nc2ccc(=O)n(C)c2)cc1`, the cytotoxicity at 70.5 h is -2.19%.

In the case of `CCC1CCCCCN1C(=O)c1cc(C#N)c(SC)[nH]c1=O` (stereo not drawn), the cytotoxicity at 70.5 h is 24.7%.

Consider `CCc1ccc(C(=O)N2CCCCC2Cn2cccn2)o1` (stereo not drawn), for which the cytotoxicity at 70.5 h was 6.61%.

For `c1ccc(N2CCCC(c3nc(-c4cccnn4)no3)C2)nc1` (stereo not drawn), the cytotoxicity at 70.5 h was -11.5%.

Take `CNc1cc(C)nc(C2COCCN2CCc2ccc(F)cc2)n1` (stereo not drawn): the cytotoxicity at 70.5 h is -4.38%.

As for `O=C(C1CCCCC1)N1CC2(CCNCC2)C1`, the cytotoxicity at 70.5 h came to 1.58%.

For the compound `O=C(NCCc1cnccn1)c1ccc(S(=O)(=O)NC2CCC2)cc1`, the cytotoxicity at 70.5 h was 18.7%.

Turning to `CC(C)c1noc(C2CCN(C(=O)C3CCCO3)CC2)n1` (stereo not drawn), the cytotoxicity at 70.5 h is -11.9%.

On to `CCN(Cc1ccncc1)C1CCCN(C/C=C/c2ccc(F)cc2)C1` (stereo not drawn), for which the cytotoxicity at 70.5 h is -3.49%.

With `O=C1N(Cc2cccc(F)c2)CCC12CCN(c1ccccn1)CC2`, the cytotoxicity at 70.5 h is -8.45%.

Turning to `COc1cccc(C(=O)NCC2CCN(C(=O)c3ccoc3)CC2)c1`, the cytotoxicity at 70.5 h is -3.78%.

`COc1cccc(-c2cc(-c3nc(CN4CCN(C)CC4)no3)[nH]n2)c1`: the cytotoxicity at 70.5 h was found to be 6.39%.

In the case of `Cc1nc(NC(=O)OC(C)(C)C)sc1C#N`, the cytotoxicity at 70.5 h is -6.61%.

As to `CCn1ncc2c1CCCC2NCc1csc(C(C)C)n1` (stereo not drawn), the cytotoxicity at 70.5 h is 0.0472%.

As for `Cc1ccccc1CN1CCNC(=O)C1CC(=O)NCC1CCCCC1` (stereo not drawn), the cytotoxicity at 70.5 h is -7.5%.

For `Cc1ccsc1C(=O)NCCCn1nc2ccccn2c1=O`, the cytotoxicity at 70.5 h was -4.38%.

With `N#CC1(c2ccccc2)CCN(C(=O)C2CCCN(CC(N)=O)C2)CC1` (stereo not drawn), the cytotoxicity at 70.5 h stood at 1.9%.

Regarding `CN1CCN(C(=O)c2ncn3c2CN(C)S(=O)(=O)c2ccccc2-3)CC1`, the cytotoxicity at 70.5 h was determined as 1.76%.

Consider `CCCNC(=O)CCNc1cncc(-n2nc(C)cc2C)n1`, for which the cytotoxicity at 70.5 h was -4.63%.

In the case of `CCN(CC1CCOC1)C(=O)c1cc(Cl)c2c(c1)OCO2` (stereo not drawn), the cytotoxicity at 70.5 h came out at 26.7%.

On to `COc1cccc(CN2CCCC(c3cc(C(N)=O)[nH]n3)C2)c1` (stereo not drawn), for which the cytotoxicity at 70.5 h is -12.6%.

For the compound `CN(C)CCNC(=O)[C@H]1C[C@@H]2CN(C(=O)NCc3ccccc3)C[C@H]1O2`, the cytotoxicity at 70.5 h is -14.9%.

`Cc1nc(-c2cn(CCN)nn2)n(-c2ccc3c(c2)CCC3)n1`: the cytotoxicity at 70.5 h is -4.36%.

With `CCc1nnc(Nc2cccc(C3CCCN(CC(C)(C)C)C3)n2)s1` (stereo not drawn), the cytotoxicity at 70.5 h is -10.7%.

Take `Cc1nc(C)n(CC2CCCN2CCc2ccncc2)n1` (stereo not drawn): the cytotoxicity at 70.5 h amounted to 18.1%.

Regarding `Cc1noc(C)c1C1CCCN1C(=O)CN1CC2(CCNCC2)OC1=O` (stereo not drawn), the cytotoxicity at 70.5 h was 19.7%.

As to `COC[C@H]1CCC[C@]12CN(S(=O)(=O)c1cccs1)CCO2`, the cytotoxicity at 70.5 h was -4.35%.

Turning to `CCN1CCCC(c2c(-c3ccccc3)ncn2Cc2csc(N)n2)C1` (stereo not drawn), the cytotoxicity at 70.5 h is -0.765%.

For the compound `COc1cn(CC(N)=O)c(CSc2nccc(C)n2)cc1=O`, the cytotoxicity at 70.5 h amounted to 23.4%.

Turning to `Cc1cccc(C2(NCCCS(C)(=O)=O)CCCC2)c1`, the cytotoxicity at 70.5 h was -6.96%.

Turning to `Cc1cc(C)n(CC(C)NC2CCN(Cc3cccnc3)CC2)n1` (stereo not drawn), the cytotoxicity at 70.5 h was -7.19%.

In the case of `O=C1C(NS(=O)(=O)c2ccc(F)c(F)c2)CCN1Cc1ccccc1` (stereo not drawn), the cytotoxicity at 70.5 h was -7.62%.

As to `Cn1cc(CN2CCc3c(COCc4ccncc4)cncc3C2)cn1`, the cytotoxicity at 70.5 h was -6.18%.

In the case of `CCOc1cc(C)nc(N2CCN(C(=O)C(C)NC(C)=O)CC2)n1` (stereo not drawn), the cytotoxicity at 70.5 h was -1.89%.

As for `COc1cccc(CCC(=O)N2CCN(CC(C)(C)O)CC2)c1`, the cytotoxicity at 70.5 h amounted to 10.1%.

Take `O=C([C@H]1C[C@H]2OCC[C@H]2N(Cc2ccccn2)C1)N1CCCCO1`: the cytotoxicity at 70.5 h is -9.44%.

Regarding `CCc1ncc(C(=O)N2CCN(Cc3ncccc3C)CC2)cn1`, the cytotoxicity at 70.5 h was -14.7%.

As for `CNc1nc(CNC(=O)Nc2ccc(OC)cc2C)cs1`, the cytotoxicity at 70.5 h was -7.81%.

With `Cc1ccc(C(=O)N2CCN(C(=O)C(C)n3ccnc3)CC2)cc1F` (stereo not drawn), the cytotoxicity at 70.5 h was -5.92%.

On to `Cc1nc2ccccc2nc1CN(C)CC1CCCN1c1cccnn1` (stereo not drawn), for which the cytotoxicity at 70.5 h worked out at 3.52%.

`CCCN(CCC)S(=O)(=O)NCCc1cc(C)ccc1OC`: the cytotoxicity at 70.5 h was -8.2%.

As for `Fc1cnc(N2CC[C@@H]3O[C@H](COCc4ccccn4)CC[C@@H]32)nc1`, the cytotoxicity at 70.5 h was -3.08%.

Take `Cc1c(C[S+](C)[O-])cccc1NC(=O)c1cc(Cl)ccn1` (stereo not drawn): the cytotoxicity at 70.5 h is -2.39%.

Take `CS(=O)(=O)NCC1CCCCN1C(=O)c1ccc(Br)s1` (stereo not drawn): the cytotoxicity at 70.5 h was -6.12%.

Regarding `CN(Cc1ccn[nH]1)C(=O)CCC(=O)NC1CCCC1`, the cytotoxicity at 70.5 h was -9.97%.

With `c1ccc2c(c1)CC(CNCc1ccncc1)(N1CCCCC1)C2`, the cytotoxicity at 70.5 h is -4.17%.

Regarding `CC(CCO)Nc1cccc(C(F)(F)F)n1` (stereo not drawn), the cytotoxicity at 70.5 h was 3.64%.

For `Cn1nccc1C1CCN(Cc2cnn(-c3ccccc3)n2)CC1`, the cytotoxicity at 70.5 h was found to be 20.8%.

On to `CSCCC(O)C(=O)N1CCCN(Cc2ccc(F)cc2)CC1` (stereo not drawn), for which the cytotoxicity at 70.5 h amounted to 8.69%.

For the compound `Cc1nc(C)n(CC2CCCN2CCC(=O)NC2CCCC2)n1` (stereo not drawn), the cytotoxicity at 70.5 h was found to be 0.666%.

Take `COc1cccc(CN2CCC3(CC2)CCN(c2ncc(C)cn2)C3)c1`: the cytotoxicity at 70.5 h was -0.283%.

As to `Cc1ccc(CN(CCN(C)C)Cc2nc3ccccc3[nH]2)s1`, the cytotoxicity at 70.5 h was determined as 11.2%.

In the case of `O=C(NC1CCCc2nc(N3CCOCC3)ncc21)C1CCCC1` (stereo not drawn), the cytotoxicity at 70.5 h is -4.32%.

Consider `Cc1cc2occ(CC(=O)N3CCC(O)(CN(C)C)C3)c2cc1Cl` (stereo not drawn), for which the cytotoxicity at 70.5 h is -5.39%.

For the compound `Cc1nnc2n1CCN(C(=O)CN1C(=O)C(C)Oc3ccccc31)C2` (stereo not drawn), the cytotoxicity at 70.5 h is -7.32%.
